The values that follow come from patent US20230295152A1 (SENDA BIOSCIENCES, INC., priority 2019, published 2023).

SMILES strings stand for the structures.

This series in a line: Hepatocyte Stability Assay, human. The series is classed as in vitro ADME. Particulars: cryopreserved hepatocytes in suspension; human hepatocytes; read-out: Human hepatocyte clearance. The method, then:
• Preparation of working solutions: 10 mM stock solutions of test compound and positive control were prepared in DMSO. In separate conical tubes, the 10 mM solution of test compound and the positive control were diluted to 100 μM by combining 198 μL of 50% acetonitrile/50% water and 2 μL of 10 mM stock.
Preparation of Hepatocytes: Incubation medium (William's E Medium supplemented with GlutaMAX) and hepatocyte thawing medium were placed in a 37° C. water bath and allowed warming for at least 15 minutes prior to use. A vial of cryopreserved hepatocytes was transferred from storage, ensuring that vials remained at cryogenic temperatures until thawing process ensued. Cells were thawed by placing the vial in a 37° C. water bath and gently shaking the vials for 2 minutes. After thawing was completed, vial was sprayed with 70% ethanol and transferred to a biosafety cabinet. Wide-bore pipette tip were used to transfer hepatocytes into 50 mL conical tube containing thawing medium. The 50 mL conical tube were placed into a centrifuge and spun at 100 g for 10 minutes. Upon completion of spin, thawing medium was aspirated and resuspended hepatocytes in enough incubation medium to yield ˜1.5×10^6 cells/mL. Using an AO/PI Staining, cells were counted and the viable cell density was determined. Cells with poor viability (<75% viability) were determined to be not acceptable for use. Cells were diluted with incubation medium to a working cell density of 0.5×10^6 viable cells/mL.
Procedure for Stability Determination: 198 μL of hepatocytes were pipetted into each wells of a 96-well non-coated plate. The plate was placed in the incubator to allow the hepatocytes to warm for 10 minutes. 2 μL of the 100 μM test compound or positive control solutions were pipetted into respective wells of the 96-well non-coated plate to start the reaction. The plate was returned to the incubator for the designed time points. Well contents was transferred in 25 μL aliquots at time points of 0, 15, 30, 60, 90 and 120 minutes. The aliquots were then mixed with 6 volumes (150 μL) of acetonitrile containing internal standard, IS (100 nM alprazolam, 200 nM caffeine and 100 nM tolbutamide) to terminate the reaction. The mixture was vortex for 5 minutes. Samples were centrifuged for 45 minutes at 3,220 g. An aliquot of 100 μL of the supernatant was diluted by 100 μL ultra-pure water, and the mixture was used for LC/MS/MS analysis. All incubations were performed in duplicate.
Data Analysis: All calculations were carried out using Microsoft Excel. Peak areas were determined from extracted ion chromatograms. In vitro half-life (t1/2) of parent compound was determined by regression analysis of the percent parent disappearance vs. time curve.
The in vitro half-life (in vitro t1/2) was determined from the slope value:
Conversion of the in vitro t1/2 (in min) into the in vitro intrinsic clearance (in vitro CLint, in μL/min/1×10^6 cells) was done using the following equation (mean of duplicate determinations):
V=incubation volume(0.2 mL);
N=number of hepatocytes per well(0.1×10^6 cells).
“+++” indicates a CLint value less than 20 mL/min/Kg, “++” indicates a CLint between 20 and 50 mL/min/Kg, and “+” indicates an CLint above 50 mL/min/Kg.
In the case of `O=c1c2cc(-c3ccc(Cl)cc3)nc(-c3cccnc3)c2ncn1[C@@H]1COC[C@@H]1O` (stereo in doubt) [Compound 71], the CLint scaled at 1 μM was less than 20 mL/min/kg. Next, `C[C@@H](CO)n1cnc2c(-c3cccnc3)nc(-c3ccc(C(F)(F)F)cc3)cc2c1=O` [Compound 23]: less than 20 mL/min/kg. For `C[C@@H](CO)n1cnc2c(-c3cnn(C)c3)nc(-c3ccc(OC(F)(F)F)cc3)cc2c1=O` [Compound 25] the value was less than 20 mL/min/kg; for `C[C@H](n1cnc2c(-c3cccnc3)nc(-c3cccnc3)cc2c1=O)C(C)(C)O` [Compound 34], less than 20 mL/min/kg. As for `C[C@@H](CO)n1cnc2c(-c3cccnc3)nc(-c3ccc(OC(F)(F)F)nc3)cc2c1=O` [Compound 50], the CLint scaled at 1 μM lay within 20 to 50 mL/min/kg. For `CC(C)(O)Cn1cnc2c(-c3cn[nH]c3)nc(-c3ccc(C(F)(F)F)nc3)cc2c1=O` [Compound 51] the value was less than 20 mL/min/kg; for `CC(C)(O)Cn1cnc2c(-c3cnsc3)nc(-c3ccc(C(F)(F)F)nc3)cc2c1=O` [Compound 54], less than 20 mL/min/kg; for `C[C@@H](CO)n1cnc2c(-c3cnsc3)nc(-c3ccc(C(F)(F)F)nc3)cc2c1=O` [Compound 55], 20 to 50 mL/min/kg. For `O=c1c2cc(-c3ccc(C(F)(F)F)nc3)nc(-c3cccnc3)c2ncn1C[C@H](O)C(F)(F)F` [Compound 57] the value was less than 20 mL/min/kg. Next, `C[C@@H](CO)n1cnc2c(-c3cnsc3)nc(-c3ccc(Cl)cc3)cc2c1=O` [Compound 58]: less than 20 mL/min/kg; `C[C@@H](CO)n1cnc2c(-c3cccnc3)nc(-c3cnc(C4CC4)s3)cc2c1=O` [Compound 66]: 20 to 50 mL/min/kg; `CC(C)(O)Cn1cnc2c(-c3cccnc3)nc(-c3ccc(C4CC4)nc3)cc2c1=O` [Compound 81]: less than 20 mL/min/kg.

With `Cn1cc(-c2nc(-c3ccc(C4CC4)nc3)cc3c(=O)n(CC(C)(C)O)cnc23)cn1` [Compound 82], the CLint scaled at 1 μM is less than 20 mL/min/kg. For `C[C@@H](CO)n1cnc2c(-c3cnn(C)c3)nc(-c3ccc(C4CC4)nc3)cc2c1=O` [Compound 83], the CLint scaled at 1 μM is less than 20 mL/min/kg. On to `C[C@@H](CO)n1cnc2c(-c3cccnc3)nc(-c3cnc(C(F)(F)F)s3)cc2c1=O` [Compound 85], for which the CLint scaled at 1 μM was less than 20 mL/min/kg. Next, `C[C@@H](CO)n1cnc2c(-c3cccnc3)nc(-c3cnc(C(F)(F)F)nc3)cc2c1=O` [Compound 86]: less than 20 mL/min/kg; `Cn1cc(-c2nc(-c3ccc(C(F)(F)F)nc3)cc3c(=O)n([C@H]4COC[C@H]4O)cnc23)cn1` [Compound 88]: less than 20 mL/min/kg. For `Cc1ncc(-c2cc3c(=O)n([C@@H](C)CO)cnc3c(-c3cccnc3)n2)s1` [Compound 89] the value was less than 20 mL/min/kg; for `Cn1cc(-c2nc(-c3ccc(Cl)cc3)cc3c(=O)n([C@H]4COC[C@H]4O)cnc23)cn1` [Compound 92], less than 20 mL/min/kg; for `C[C@@H](CO)n1cnc2c(-c3cnn(C)c3)nc(-c3cnc(C(F)(F)F)nc3)cc2c1=O` [Compound 95], less than 20 mL/min/kg. Next, `Cn1cc(-c2nc(-c3cnc(C(F)(F)F)nc3)cc3c(=O)n(CC(C)(C)O)cnc23)cn1` [Compound 99]: less than 20 mL/min/kg.

With `CC(C)(O)Cn1cnc2c(-c3cnsc3)nc(-c3ccc(C(F)(F)F)cn3)cc2c1=O` [Compound 101, 3-(2-hydroxy-2-methylpropyl)-8-(isothiazol-4-yl)-6-(5-(trifluoromethyl)pyridin-2-yl)pyrido[3,4-d]pyrimidin-4(3H)-one], the CLint scaled at 1 μM was less than 20 mL/min/kg.

Consider `C[C@@H](CO)n1cnc2c(-c3cnsc3)nc(-c3ccc(C(F)(F)F)cn3)cc2c1=O` [Compound 102, (S)-3-(1-hydroxypropan-2-y1)-8-(isothiazol-4-yl)-6-(5-(trifluoromethyl)pyridin-2-yl)pyrido[3,4-d]pyrimidin-4(3H)-one], for which the CLint scaled at 1 μM is less than 20 mL/min/kg.

For the compound `O=c1c2cc(-c3ccc(C(F)(F)F)cn3)nc(-c3cccnc3)c2ncn1C[C@H](O)C(F)(F)F` [Compound 104, (S)-8-(pyridin-3-yl)-3-(3,3,3-trifluoro-2-hydroxypropyl)-6-(5-(trifluoromethyl)pyridin-2-yl)pyrido[3,4-d]pyrimidin-4(3H)-one], the CLint scaled at 1 μM was less than 20 mL/min/kg.

For `C[C@H](O)Cn1cnc2c(-c3cnn(C)c3)nc(-c3ccc(C(F)(F)F)nc3)cc2c1=O` [Compound 109, (S)-3-(2-hydroxypropyl)-8-(1-methyl-1H-pyrazol-4-yl)-6-(6-(trifluoromethyl)pyridin-3-yl)pyrido[3,4-d]pyrimidin-4(3H)-one], the CLint scaled at 1 μM was less than 20 mL/min/kg. Next, `Cn1cc(-c2nc(-c3ccc(C(F)(F)F)nc3)cc3c(=O)n(C[C@@H](O)C(F)(F)F)cnc23)cn1` [Compound 110, (R)-8-(1-methyl-1H-pyrazol-4-yl)-3-(3,3,3-trifluoro-2-hydroxypropyl)-6-(6-(trifluoromethyl)pyridin-3-yl)pyrido[3,4-d]pyrimidin-4(3H)-one]: less than 20 mL/min/kg; `Cn1cc(-c2nc(-c3ccc(C(F)(F)F)nc3)cc3c(=O)n(C[C@H](O)C(F)(F)F)cnc23)cn1` [Compound 111, (S)-8-(1-methyl-1H-pyrazol-4-yl)-3-(3,3,3-trifluoro-2-hydroxypropyl)-6-(6-(trifluoromethyl)pyridin-3-y1)pyrido[3,4-d]pyrimidin-4(3H)-one]: less than 20 mL/min/kg; `C[C@@H](O)Cn1cnc2c(-c3cccnc3)nc(-c3ccc(C(F)(F)F)nc3)cc2c1=O` [Compound 112, (R)-3-(2-hydroxypropyl)-8-(pyridin-3-yl)-6-(6-(trifluoromethyl)pyridin-3-yl)pyrido[3,4-d]pyrimidin-4(3H)-one]: less than 20 mL/min/kg. Turning to `Cn1cc(-c2nc(-c3ccc(C(F)(F)F)nc3)cc3c(=O)n([C@H]4COC[C@@H]4O)cnc23)cn1` [Compound 114, 3-((3S,4R)-4-hydroxytetrahydrofuran-3-yl)-8-(1-methyl-1H-pyrazol-4-yl)-6-(6-(trifluoromethyl)pyridin-3-yl)pyrido[3,4-d]pyrimidin-4(3H)-one], the CLint scaled at 1 μM is less than 20 mL/min/kg.

In the case of `Cn1cc(-c2nc(-c3ccc(C(F)(F)F)nc3)cc3c(=O)n([C@@H]4COC[C@H]4O)cnc23)cn1` [Compound 115, 3-((3R,4S)-4-hydroxytetrahydrofuran-3-y1)-8-(1-methyl-1H-pyrazol-4-y1)-6-(6-(trifluoromethyl)pyridin-3-yl)pyrido[3,4-d]pyrimidin-4(3H)-one], the CLint scaled at 1 μM was less than 20 mL/min/kg.

As to `Cn1cc(-c2nc(-c3ccc(Cl)cc3)cc3c(=O)n([C@H]4COC[C@@H]4O)cnc23)cn1` [Compound 116], the CLint scaled at 1 μM is less than 20 mL/min/kg. For `O=c1c2cc(-c3ccc(C(F)(F)F)nc3)nc(-c3cccnc3)c2ncn1[C@H]1COC[C@@H]1O` [Compound 117] the value was less than 20 mL/min/kg; for `O=c1c2cc(-c3ccc(C4CC4)nc3)nc(-c3cccnc3)c2ncn1C[C@H](O)C(F)(F)F` [Compound 120, (S)-6-(6-cyclopropylpyridin-3-yl)-8-(pyridin-3-yl)-3-(3,3,3-trifluoro-2-hydroxypropyl)pyrido[3,4-d]pyrimidin-4(3H)-one], less than 20 mL/min/kg; for `O=c1c2cc(-c3ccc(C(F)(F)F)nc3)nc(-c3cccnc3)c2ncn1C[C@@H](O)C(F)(F)F` [Compound 122, (R)-8-(pyridin-3-yl)-3-(3,3,3-trifluoro-2-hydroxypropyl)-6-(6-(trifluoromethyl)pyridin-3-yl)pyrido[3,4-d]pyrimidin-4(3H)-one], less than 20 mL/min/kg.

Take `O=c1c2cc(-c3ccc(OC(F)(F)F)cc3)nc(-c3cccnc3)c2ncn1C[C@H](O)C(F)(F)F` [Compound 124, (S)-8-(pyridin-3-yl)-3-(3,3,3-trifluoro-2-hydroxypropyl)-6-(4-(trifluoromethoxy)phenyl)pyrido[3,4-d]pyrimidin-4(3H)-one]: the CLint scaled at 1 μM was less than 20 mL/min/kg.

Turning to `O=c1c2cc(-c3ccc(C(F)(F)F)nc3)nc(-c3cccnc3)c2ncn1[C@H]1COC[C@H]1O` [Compound 126, 3-((3S,4S)-4-hydroxytetrahydrofuran-3-yl)-8-(pyridin-3-yl)-6-(6-(trifluoromethyl)pyridin-3-yl)pyrido[3,4-d]pyrimidin-4(3H)-one], the CLint scaled at 1 μM was less than 20 mL/min/kg.
